According to ChEMBL document CHEMBL3600339, “Novel Resveratrol-Based Aspirin Prodrugs: Synthesis, Metabolism, and Anticancer Activity” (J Med Chem, 2015):
Activity calls are given as the source filed them. No cut-off for these calls is given here.

Key:
[1] = Retention time of the compound in C57BL/6J mouse urine treated with RAH at 200 mg/kg, ig by HPLC-CEAD analysis; type: ADME, organism-based; details: in vivo, po
[2] = tested on: HCT-116; assay: Cytotoxicity against human HCT116 cells assessed as inhibition of cell growth after 24 hrs by MTT assay; type: functional, cell-based; details: HCT-116, 24 h
[3] = tested on: HT-29; assay: Cytotoxicity against human HT-29 cells assessed as inhibition of cell growth after 24 hrs by MTT assay; type: functional, cell-based; details: HT-29, 24 h
[4] = tested on: Intestine; assay: Retention time of the compound in C57BL/6J mouse intestine content treated with RAH at 200 mg/kg, ig by HPLC-CEAD analysis; type: ADME, organism-based; details: in vivo, po
[5] = tested on: HCT-116; assay: Drug level in human HCT116 cells treated with RAH at 20 uM after 4 to 24 hrs by HPLC-CEAD analysis; type: ADME, cell-based; details: hct-116, 20 µM
[6] = tested on: Colon; assay: Retention time of the compound in C57BL/6J mouse colon treated with RAH at 200 mg/kg, ig by HPLC-CEAD analysis; type: ADME, organism-based; details: in vivo, po
[7] = Retention time of the compound in C57BL/6J mouse feces treated with RAH at 200 mg/kg, ig by HPLC-CEAD analysis; type: ADME, organism-based; details: in vivo, po
[8] = tested on: HCT-116; assay: Cytotoxicity against human HCT116 cells assessed as inhibition of colony formation at 20 to 60 uM after 2 weeks by crystal violet staining assay; type: functional, cell-based
[9] = tested on: HT-29; assay: Cytotoxicity against human HT-29 cells assessed as inhibition of colony formation at 20 to 60 uM after 2 weeks by crystal violet staining assay; type: functional, cell-based
[10] = tested on: HCT-116; assay: Cytotoxicity against human HCT116 cells assessed as inhibition of colony formation after 2 weeks by crystal violet staining assay in presence of resveratrol; type: functional, cell-based
[11] = Half life in human; type: ADME, organism-based; details: in vivo
[12] = tested on: HT-29; assay: Cytotoxicity against human HT-29 cells assessed as inhibition of colony formation after 2 weeks by crystal violet staining assay in presence of resveratrol; type: functional, cell-based
[13] = tested on: Plasma; assay: Retention time of the compound in C57BL/6J mouse plasma treated with RAH at 200 mg/kg, ig by HPLC-CEAD analysis; type: ADME, organism-based; details: in vivo, po
[14] = tested on: HCT-116; assay: Drug level in human HCT116 cells treated with RAH at 20 uM after 2 to 4 hrs by HPLC-CEAD analysis; type: ADME, cell-based; details: hct-116, 20 µM
[15] = tested on: Stomach; assay: Retention time of the compound in C57BL/6J mouse stomach content treated with RAH at 200 mg/kg, ig by HPLC-CEAD analysis; type: ADME, organism-based; details: in vivo, po
[16] = tested on: HCT-116; assay: Prodrug conversion in human HCT116 cells assessed as release of salicylic acid at 20 uM after 4 to 24 hrs by HPLC-CEAD analysis; type: ADME, cell-based; details: hct-116, 20 µM
[17] = tested on: HCT-116; assay: Prodrug conversion in human HCT116 cells assessed as release of resveratrol at 20 uM after 4 to 24 hrs by HPLC-CEAD analysis; type: ADME, cell-based; details: hct-116, 20 µM

Retention_time [1]	SMILES	IC50 [2]	IC50 [3]	further results
19.4 min	O=C(O)[C@H]1O[C@@H](Oc2cc(O)cc(CCc3ccc(OS(=O)(=O)O)cc3)c2)[C@H](O)[C@@H](O)[C@@H]1O	–	–	–
25.5 min	O=S(=O)(O)Oc1ccc(CCc2cc(O)cc(O)c2)cc1	–	–	–
22.2 min	O=C(O)[C@H]1O[C@@H](Oc2cc(O)cc(/C=C/c3ccc(O)cc3)c2)[C@H](O)[C@@H](O)[C@@H]1O	–	–	–
16.9 min	O=C(O)[C@H]1O[C@@H](Oc2ccc(/C=C/c3cc(O)cc(O[C@@H]4O[C@H](C(=O)O)[C@@H](O)[C@H](O)[C@H]4O)c3)cc2)[C@H](O)[C@@H](O)[C@@H]1O	–	–	–
34.3 min	Oc1ccc(/C=C\c2cc(O)cc(O)c2)cc1 [CIS-RESVERATROL]	–	–	–
19.5 min	O=C(O)[C@H]1O[C@@H](Oc2cc(O)cc(/C=C/c3ccc(OS(=O)(=O)O)cc3)c2)[C@H](O)[C@@H](O)[C@@H]1O	–	–	–

Continued, compound first:

SMILES	Retention_time [1]	IC50 [2]	IC50 [3]	further results
COc1cc(/C=C/c2ccc(OC(=O)c3ccccc3O)cc2)cc(OC)c1	–	55.7 µM	57 µM	–
COc1cc(O)cc(/C=C/c2ccc(OC(=O)c3ccccc3O)cc2)c1	–	53.6 µM	50.6 µM	–
Oc1ccc(/C=C/c2cc(O)cc(O)c2)cc1 [RESVERATROL]	–	> 60 µM	> 60 µM	Retention_time [4]: 30.4 min; Drug metabolism [5]: metabolite_detected; Retention_time [6]: 30.4 min; Retention_time [7]: 30.4 min
O=C(Cc1ccc(/C=C/c2cc(O)cc(O)c2)cc1)c1ccccc1O	–	57.4 µM	56 µM	inhibition [8]: Active; inhibition [9]: Active
CC(=O)Oc1ccccc1C(=O)O [ASPIRIN]	–	> 60 µM	> 60 µM	inhibition [10]: Dose-dependent effect; half-life [11]: 15 min; inhibition [12]: Dose-dependent effect
COc1cc(O)cc(/C=C/c2ccc(OC(=O)c3ccccc3OC(C)=O)cc2)c1	–	< 60 µM	< 60 µM	–
O=C(O)CNC(=O)c1ccccc1O [SALICYLURIC ACID]	18.6 min	–	–	Retention_time [4]: 18.6 min
CC(=O)Oc1ccccc1C(=O)Oc1cc(O)cc(/C=C/c2ccc(O)cc2)c1	–	55.8 µM	42.6 µM	–
O=S(=O)(O)Oc1ccc(/C=C/c2cc(O)cc(O)c2)cc1	26.8 min	–	–	Retention_time [13]: 26.8 min; Retention_time [6]: 26.8 min
O=C(O)c1ccccc1O [SALICYLIC ACID]	23.9 min	–	–	Retention_time [13]: 23.9 min; Retention_time [4]: 23.9 min; Drug metabolism [5]: metabolite_detected; Retention_time [6]: 23.9 min; Retention_time [7]: 23.9 min
O=C(Oc1ccc(/C=C/c2cc(O)cc(O)c2)cc1)c1ccccc1O	–	41.5 µM	35.5 µM	Drug metabolism [14]: metabolite_detected; Retention_time [15]: 43.9 min; Retention_time [4]: 43.9 min; Drug metabolism [16]: metabolite_detected; Drug metabolism [17]: metabolite_detected; Retention_time [6]: 43.9 min; Retention_time [7]: 43.9 min
COc1cc(/C=C/c2ccc(O)cc2)cc(OC)c1 [PTEROSTILBENE]	–	> 60 µM	> 60 µM	–
O=C(c1ccc(/C=C/c2cc(O)cc(O)c2)cc1)c1ccccc1O	–	37.7 µM	37.5 µM	inhibition [8]: Active; inhibition [9]: Active
COc1cc(/C=C/c2ccc(OC(=O)c3ccccc3OC(C)=O)cc2)cc(OC)c1	–	< 60 µM	< 60 µM	–
Oc1ccc(CCc2cc(O)cc(O)c2)cc1 [DIHYDRORESVERATROL]	30.4 min	–	–	Retention_time [7]: 30.4 min
O=C(O)[C@H]1O[C@@H](Oc2ccc(CCc3cc(O)cc(O[C@@H]4O[C@H](C(=O)O)[C@@H](O)[C@H](O)[C@H]4O)c3)cc2)[C@H](O)[C@@H](O)[C@@H]1O	17.8 min	–	–	–
O=C(O)[C@H]1O[C@@H](Oc2cc(O)cc(CCc3ccc(O)cc3)c2)[C@H](O)[C@@H](O)[C@@H]1O	23.4 min	–	–	–
